Here are results for seven compounds from patent US11814368B2, “Triazine derivatives having virus replication inhibitory activity and pharmaceutical composition comprising the same” (priority 2021, dated 2023).

The assay relates to SARS-CoV-2. As to the kind of experiment: microbe, parasite or virus in culture. As to conditions: for EC50: Severe acute respiratory syndrome coronavirus 2, 72 h, read-out: 50% SARS-CoV-2 infected cell death inhibitory concentration (EC50), VeroE6/TMPRSS2 cells, SARS-CoV-2, 3 days culture, CellTiter-Glo 2.0; for coronavirus replication inhibitory activity: at concentrations up to 50 µM. The class given is cell-based.

For `Cc1nc2ccc(/N=c3\[nH]c(=O)n(C[C@H]4COC(C)(C)O4)c(=O)n3Cc3ccc(Cl)cc3)cc2s1` [Patent Document 1 Compound 1-1603], the EC50 is over 50 µM and the “coronavirus replication inhibitory activity” value was “did not show coronavirus replication inhibitory activity”.
For the compound `CC(C)Oc1ccc(/N=c2\[nH]c(=O)n(Cc3ccc[nH]c3=O)c(=O)n2Cc2ccc(Cl)cc2)cc1F` [Patent Document 1 Compound I-0685], the EC50 was over 50 µM and the “coronavirus replication inhibitory activity” value is given as “did not show coronavirus replication inhibitory activity”.
The corresponding values for `COc1ncccc1Cn1c(=O)[nH]/c(=N\c2ccc(OC(C)C)c(F)c2)n(Cc2ccc(Cl)cc2)c1=O` [Patent Document 1 Compound I-0683] are over 50 µM and “did not show coronavirus replication inhibitory activity”.
The corresponding values for `O=C(O)c1ccc(Oc2ccc(/N=c3\[nH]c(=O)n(-c4cccs4)c(=O)n3Cc3ccc(Cl)cc3)cc2)nc1` [Patent Document 2 Compound I-575] are over 50 µM and “did not show coronavirus replication inhibitory activity”.
On the same counts, the results for `Cc1ccc(Cn2c(=O)nc(Nc3cccc(C(F)(F)F)c3)n(Cc3ccc(Cl)c(Cl)c3)c2=O)cc1` [Patent Document 3 Compound 1-066] are over 50 µM and “did not show coronavirus replication inhibitory activity”.
Regarding `CC(C)Oc1ccc(/N=c2\[nH]c(=O)n(Cc3ncn[nH]3)c(=O)n2Cc2ccc(Cl)cc2)cc1F` [Patent Document 1 Compound I-0679], the EC50 is over 50 µM and the “coronavirus replication inhibitory activity” value is listed as “did not show coronavirus replication inhibitory activity”.
On the same counts, the results for `O=C(O)c1ccc(Oc2ccc(/N=c3\[nH]c(=O)n(-c4ccon4)c(=O)n3Cc3ccc(Cl)cc3)cc2)nc1` [Patent Document 2 Compound I-580] are over 50 µM and “did not show coronavirus replication inhibitory activity”.
